US20150315188A1, “COMPOUNDS AND METHODS FOR TREATMENT OF HYPERTENSION” (MEDIVATION TECHNOLOGIES, INC., priority 2012, published 2015)

How the values were obtained:
Type in all cases: cell-based
[1] = biological target: T1, Human adrenergic α2A receptor (Homo sapiens, UniProt P08913); assay: β-Arrestin GPCR functional assay, adrenergic α2A (Protocol B); conditions: for IC50: β-arrestin, antagonist vs nor-epinephrine EC80
T1 sequence (P08913 1-465): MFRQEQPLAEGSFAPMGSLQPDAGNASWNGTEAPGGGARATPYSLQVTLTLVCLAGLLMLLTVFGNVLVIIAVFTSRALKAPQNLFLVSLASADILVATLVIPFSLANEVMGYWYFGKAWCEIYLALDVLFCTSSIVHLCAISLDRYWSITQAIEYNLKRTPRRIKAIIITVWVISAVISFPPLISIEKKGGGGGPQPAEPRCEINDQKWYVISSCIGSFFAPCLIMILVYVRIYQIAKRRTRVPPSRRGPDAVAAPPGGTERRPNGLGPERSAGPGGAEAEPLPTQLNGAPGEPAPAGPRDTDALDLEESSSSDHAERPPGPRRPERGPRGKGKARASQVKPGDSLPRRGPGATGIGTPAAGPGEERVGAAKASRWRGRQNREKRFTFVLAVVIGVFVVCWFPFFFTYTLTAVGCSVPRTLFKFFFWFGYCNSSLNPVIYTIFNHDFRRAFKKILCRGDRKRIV
Experimental: (§1) To evaluate the activity of compounds in β-Arrestin GPCR functional assays, recombinant CHO cell line (DiscoveRX), over expressed with human adrenergic α2A receptor were used. The experiment was done with kit of DiscoveRX as per recommended protocol of the supplier. Cells were harvested from culture flask using cell dissociation solution (CDS) and plated at a density of 12,000 cells/well in CP reagent (supplied with the kit) in a half area 96-well white polystyrene plate. After 24 h incubation at 37° C., compounds at various concentrations in 1% (final) DMSO were charged to the cells for 30 min at 37° C. Active nor-epinephrine (-NE) at its EC80 concentrations (270 nM) were then added to the cells and incubated for another 90 min at 37° C. Detection mix was prepared by mixing of Path Hunter cell assay buffer, Emerald II solution and Galactone star solution in a ratio of 19:5:1 and incubated with the cells for 60 min at RT in the dark. The reading was taken in Envision at luminescence mode. Biochemical assay results are presented as the percent Inhibition in Table B2a, or IC50 values in Table B2b.

[2] = biological target: T2, Human adrenergic α2B receptor (Homo sapiens, UniProt P18089); assay: β-Arrestin GPCR functional assay, adrenergic α2B (Protocol B); conditions: for IC50: β-arrestin, antagonist vs nor-epinephrine EC80, read-out: IC50 Adrenergic α2B
T2 sequence (P18089 1-450): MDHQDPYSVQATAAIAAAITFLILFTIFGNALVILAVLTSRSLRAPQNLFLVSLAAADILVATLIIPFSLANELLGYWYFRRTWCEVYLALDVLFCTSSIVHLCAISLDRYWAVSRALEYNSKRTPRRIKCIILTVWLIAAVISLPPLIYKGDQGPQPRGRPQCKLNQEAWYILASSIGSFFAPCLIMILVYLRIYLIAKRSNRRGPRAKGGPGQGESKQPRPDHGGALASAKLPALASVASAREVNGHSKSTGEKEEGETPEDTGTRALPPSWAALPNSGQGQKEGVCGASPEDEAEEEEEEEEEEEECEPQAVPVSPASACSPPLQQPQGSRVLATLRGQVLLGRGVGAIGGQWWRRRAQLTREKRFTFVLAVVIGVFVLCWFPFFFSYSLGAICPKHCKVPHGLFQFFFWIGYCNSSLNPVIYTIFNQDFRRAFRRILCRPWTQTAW
Summary of the method: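 CHO cells overexpressing human α2B (PathHunter β-arrestin), 12,000 per well, 24 h at 37° C; compounds in 1% DMSO 30 min, then 50 nM norepinephrine (EC80) 90 min at 37° C.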

[3] = biological target: T3, Human adrenergic α1B receptor (Homo sapiens, UniProt P35368); assay: β-Arrestin GPCR functional assay, adrenergic α1B (Protocol B); conditions: for IC50: β-arrestin, antagonist vs nor-epinephrine EC80
T3 sequence (P35368 1-520): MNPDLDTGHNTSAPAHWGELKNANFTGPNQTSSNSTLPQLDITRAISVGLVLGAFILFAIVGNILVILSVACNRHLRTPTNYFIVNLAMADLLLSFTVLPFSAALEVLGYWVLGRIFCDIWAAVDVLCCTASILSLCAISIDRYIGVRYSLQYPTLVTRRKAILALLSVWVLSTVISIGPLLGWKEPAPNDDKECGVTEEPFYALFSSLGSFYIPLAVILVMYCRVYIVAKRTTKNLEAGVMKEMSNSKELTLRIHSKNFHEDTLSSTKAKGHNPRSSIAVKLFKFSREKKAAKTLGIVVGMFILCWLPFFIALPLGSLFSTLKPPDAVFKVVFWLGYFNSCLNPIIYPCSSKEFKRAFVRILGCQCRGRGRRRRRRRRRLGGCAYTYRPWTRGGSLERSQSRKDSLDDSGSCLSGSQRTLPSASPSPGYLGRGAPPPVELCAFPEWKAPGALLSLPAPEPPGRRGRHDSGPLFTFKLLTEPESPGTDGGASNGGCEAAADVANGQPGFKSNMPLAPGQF
Experimental: as §1, with “human adrenergic α1B receptor were” for “human adrenergic α2A receptor were”, “done with a kit of” for “done with kit of”, “EC80 concentrations (50 nM) were” for “EC80 concentrations (270 nM) were”, “by mixing Path Hunter” for “by mixing of Path Hunter”

Row | Structure (SMILES) | IC50 [1] | IC50 [2] | IC50 [3] | also measured
1 | Cc1cc(C)c2c(c1)c1c(n2CC(C)(O)c2cccnc2)CCN2CCCC12 (single isomer, unassigned) [44a] | 5180 nM | 178 nM | 684 nM | 
2 | Cc1cc(C)c2c(c1)c1c(n2CC(C)(O)c2cccnc2)CCN2CCCC12 (single isomer, unassigned) [44b] | 909 nM | 10 nM | 252 nM | 
3 | Cc1ccc2c(c1)c1c(n2CC(C)(O)c2ccnc(F)c2)CCN2CCCC12 (single isomer, unassigned) [48a] | 1110 nM | 20 nM | 45 nM | 
4 | Cc1ccc2c(c1)c1c(n2CC(C)(O)c2ccnc(F)c2)CCN2CCCC12 (single isomer, unassigned) [48b] | 491 nM | 18 nM | 123 nM | 
5 | Cc1cc2c3c(n(CC(C)(O)c4ccncc4)c2cc1Cl)CCN1CCCC31 (single isomer, unassigned) [50a] | 713 nM | 14 nM | 47 nM | 
6 | Cc1cc2c3c(n(CC(C)(O)c4ccncc4)c2cc1Cl)CCN1CCCC31 (single isomer, unassigned) [50b] | 565 nM | 12 nM | 54 nM | 
7 | CC(O)(Cn1c2c(c3cc(Cl)cc(F)c31)C1CCCN1CC2)c1ccncc1 (single isomer, unassigned) [52a] | 1020 nM | 16 nM | 149 nM | 
8 | CC(O)(Cn1c2c(c3cc(Cl)cc(F)c31)C1CCCN1CC2)c1ccncc1 (single isomer, unassigned) [52b] | 992 nM | 49 nM | 224 nM | 
9 | Cc1ccc2c(c1)c1c(n2CC(OCC2CCC2)c2ccncc2)CCN(C)C1 (single isomer, unassigned) [59a] | 1570 nM | 67 nM | 350 nM | 
10 | Cc1cc(F)cc2c3c(n(CC(C)(O)c4cccnc4)c12)CCN1CCCC31 (single isomer, unassigned) [75a] | 2080 nM | 17 nM | 719 nM | 
11 | Cc1cc(F)c2c(c1)c1c(n2CC(C)(O)c2ccncc2)CCN2CCCC12 (single isomer, unassigned) [81a] | 1250 nM | 16 nM | 91 nM | 
12 | Cc1cc(Cl)c2c(c1)c1c(n2CC(C)(O)c2ccncc2)CCN2CCCC12 (single isomer, unassigned) [91a] | 865 nM | 16.4 nM | 213 nM | 
13 | Cc1cc(Cl)c2c(c1)c1c(n2CC(C)(O)c2ccncc2)CCN2CCCC12 (single isomer, unassigned) [91b] | 1780 nM | 18.7 nM | 283 nM | 
14 | OC(Cn1c2c(c3cc(Cl)cc(F)c31)C1CCCN1CC2)c1ccncc1 (single isomer, unassigned) [135a] | 4350 nM | 53.1 nM | 189 nM | 
15 | OC(Cn1c2c(c3cc(Cl)cc(F)c31)C1CCCN1CC2)c1ccncc1 (single isomer, unassigned) [135b] | 295 nM | 9.27 nM | 102 nM | 
16 | Cc1cc(F)c2c(c1)c1c(n2CC(O)c2ccncc2)CCN2CCCC12 (single isomer, unassigned) [137a] | 5100 nM | 41.3 nM | 114 nM | 
17 | Cc1cc(F)c2c(c1)c1c(n2CC(O)c2ccncc2)CCN2CCCC12 (single isomer, unassigned) [137b] | 185 nM | 6.57 nM | 35.6 nM | 
18 | Cc1ccc2c(c1)c1c(n2CC(OCC2CCC2)c2ccncc2)CCN2CCCC12 (single isomer, unassigned) [138a] | 413 nM | 17.2 nM | 72.2 nM | 
19 | Cc1ccc2c(c1)c1c(n2CC(OCC2CCC2)c2ccncc2)CCN2CCCC12 (single isomer, unassigned) [138b] | 1330 nM | 20.6 nM | 926 nM | 
20 | Cc1ccc2c(c1)c1c(n2CC(O)c2ccncc2)CC[N+]2([O-])CCCC12 (stereo not drawn) [compound 23, 7-(2-hydroxy-2-(pyridin-4-yl)ethyl)-10-methyl-1,2,3,4,5,6,7,11c-octahydroindolizino[7,8-b]indole 4-oxide] |  | 382 nM | 1210 nM | inhibition at 0.1 µM ([1]; 0.1 μM compound, nor-epinephrine at EC80 (270 nM), read-out: Percentage inhibition, Adrenergic α2A): 1%; inhibition at 0.3 µM ([1]; 0.3 μM compound, nor-epinephrine at EC80 (270 nM), read-out: Percentage inhibition, Adrenergic α2A): 1%; inhibition at 0.01 µM ([2]; 10 nM compound, nor-epinephrine at EC80 (50 nM), read-out: Percentage inhibition, Adrenergic α2B): 10%; inhibition at 0.03 µM ([2]; 30 nM compound, nor-epinephrine at EC80 (50 nM), read-out: Percentage inhibition, Adrenergic α2B): 12%; inhibition at 0.1 µM ([2]; 0.1 μM compound, nor-epinephrine at EC80 (50 nM), read-out: Percentage inhibition, Adrenergic α2B): 27%; inhibition at 0.1 µM ([3]; 0.1 μM compound, nor-epinephrine at EC80 (50 nM), read-out: Percentage inhibition, Adrenergic α1B): 15%; inhibition at 0.3 µM ([3]; 0.3 μM compound, nor-epinephrine at EC80 (50 nM), read-out: Percentage inhibition, Adrenergic α1B): 15%
21 | Cc1ccc2c(c1)c1c(n2C[C@@H](OC2CCCC2)c2ccncc2)CCN2CCC[C@H]12 [compound 82, (11cR)-7-[(25)-2-(cyclopentoxy)-2-(4-pyridyl)ethyl]-10-methyl-1,2,3,5,6,11c-hexahydroindolizino[7,8-b]indole] | 675 nM | 25.4 nM | 382 nM | 
